Literature values in patent US20070122456A1, “Nicotine and Cocoa Powder Compositions” (priority 2001, published 2007).

Settings: intravenous infusion; smokers and non-smokers similarly

Question: For `CN1CCCC1c1cccnc1` (stereo not shown) [nicotine], which “increase of resting metabolic rate” value is on record?
Answer: Its value is 6.5%.
